From PubChem BioAssay (NCI)
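Interpolation was linear, between the two tested concentrations surrounding the appropriate level; five concentrations were tested over 48 hours in 96-well plates. At the GI50, growth is halved. The concentration for full growth arrest is given as TGI.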

Each compound was assayed on K-562 leukemia (assay: growth of human tumour cells (NCI), 48 h).
In the case of `O/N=C\c1c(O)ccc2ccccc12`, the TGI is reported as greater than 100 µM. `CCOC(=O)c1csc(NC(=O)C(C)N2CCCCC2)n1` (stereo not drawn) gave a TGI greater than 100 µM. With `CC1=NC(=Cc2ccc(O)cc2)C(=O)N1n1c(-c2ccccc2)nc2ccccc2c1=O` the TGI was greater than 100 µM. `COc1ccc2c(c1)CN1C(=N2)CSC1c1cc([N+](=O)[O-])ccc1Cl` (stereo not drawn) showed a TGI greater than 100 µM. `N#Cc1sc2nc(/C=C3/C=CC=CC3=O)c(O)n2c1N` showed a TGI of 55.9 µM. Compound `NS(=O)(=O)c1ccc(-n2c(-c3cccs3)nc3ccc(I)cc3c2=O)cc1` has a GI50 of 37.2 µM and a TGI greater than 100 µM. `Cc1cccc2c1Oc1cc(Cl)ccc1C2NC(=O)CCN1CCOCC1` (stereo not drawn) was tested, and the TGI was greater than 100 µM.

Each compound was assayed on A498 renal (assay: growth of human tumour cells (NCI), 48 h).
`N#Cc1c(-c2ccccc2)[nH]c2ccccc2c1=O` was tested, and the TGI was greater than 100 µM. `O/N=C\c1c(O)ccc2ccccc12` gave a TGI greater than 100 µM. `CCOC(=O)c1csc(NC(=O)C(C)N2CCCCC2)n1` (stereo not drawn) gave a TGI greater than 100 µM. `CC1=NC(=Cc2ccc(O)cc2)C(=O)N1n1c(-c2ccccc2)nc2ccccc2c1=O` gave a TGI greater than 100 µM. With `N#Cc1sc2nc(/C=C3/C=CC=CC3=O)c(O)n2c1N` the TGI was greater than 100 µM.

What follows are compounds tested on EKVX NSCLC (assay: growth of human tumour cells (NCI), 48 h).
`N#Cc1c(-c2ccccc2)[nH]c2ccccc2c1=O` was tested, and the TGI was greater than 100 µM. Work on `O/N=C\c1c(O)ccc2ccccc12` yielded a TGI greater than 100 µM. `CCOC(=O)c1csc(NC(=O)C(C)N2CCCCC2)n1` (stereo not drawn) was tested, and the TGI was greater than 100 µM. With `CC1=NC(=Cc2ccc(O)cc2)C(=O)N1n1c(-c2ccccc2)nc2ccccc2c1=O` the TGI was greater than 100 µM. Compound `COc1ccc2c(c1)CN1C(=N2)CSC1c1cc([N+](=O)[O-])ccc1Cl` (stereo not drawn) has a TGI greater than 100 µM. Work on `N#Cc1sc2nc(/C=C3/C=CC=CC3=O)c(O)n2c1N` yielded a TGI greater than 100 µM. For `NS(=O)(=O)c1ccc(-n2c(-c3cccs3)nc3ccc(I)cc3c2=O)cc1`, the TGI was 54.3 µM. `Cc1cccc2c1Oc1cc(Cl)ccc1C2NC(=O)CCN1CCOCC1` (stereo not drawn) was tested, and the TGI was greater than 100 µM.

What follows are compounds tested on HS 578T breast (assay: growth of human tumour cells (NCI), 48 h).
`N#Cc1c(-c2ccccc2)[nH]c2ccccc2c1=O` gave a TGI of 71.5 µM. `O/N=C\c1c(O)ccc2ccccc12` showed a TGI greater than 100 µM. `CC1=NC(=Cc2ccc(O)cc2)C(=O)N1n1c(-c2ccccc2)nc2ccccc2c1=O` gave a TGI greater than 100 µM. In the case of `COc1ccc2c(c1)CN1C(=N2)CSC1c1cc([N+](=O)[O-])ccc1Cl` (stereo not drawn), the TGI is reported as greater than 100 µM. `N#Cc1sc2nc(/C=C3/C=CC=CC3=O)c(O)n2c1N` showed a TGI greater than 100 µM.

These compounds were tested on ACHN renal (assay: growth of human tumour cells (NCI), 48 h).
For `N#Cc1c(-c2ccccc2)[nH]c2ccccc2c1=O`, the TGI was greater than 100 µM. In the case of `O/N=C\c1c(O)ccc2ccccc12`, the TGI is reported as 70.1 µM. With `CCOC(=O)c1csc(NC(=O)C(C)N2CCCCC2)n1` (stereo not drawn) the TGI was greater than 100 µM. In the case of `CC1=NC(=Cc2ccc(O)cc2)C(=O)N1n1c(-c2ccccc2)nc2ccccc2c1=O`, the TGI is reported as greater than 100 µM. `COc1ccc2c(c1)CN1C(=N2)CSC1c1cc([N+](=O)[O-])ccc1Cl` (stereo not drawn) gave a TGI greater than 100 µM. In the case of `N#Cc1sc2nc(/C=C3/C=CC=CC3=O)c(O)n2c1N`, the TGI is reported as greater than 100 µM. For `NS(=O)(=O)c1ccc(-n2c(-c3cccs3)nc3ccc(I)cc3c2=O)cc1`, the TGI was 53.8 µM.

These compounds were tested on M14 melanoma (assay: growth of human tumour cells (NCI), 48 h).
Work on `N#Cc1c(-c2ccccc2)[nH]c2ccccc2c1=O` yielded a TGI greater than 100 µM. In the case of `O/N=C\c1c(O)ccc2ccccc12`, the TGI is reported as greater than 100 µM. For `CCOC(=O)c1csc(NC(=O)C(C)N2CCCCC2)n1` (stereo not drawn), the TGI was greater than 100 µM. With `CC1=NC(=Cc2ccc(O)cc2)C(=O)N1n1c(-c2ccccc2)nc2ccccc2c1=O` the TGI was greater than 100 µM. Compound `COc1ccc2c(c1)CN1C(=N2)CSC1c1cc([N+](=O)[O-])ccc1Cl` (stereo not drawn) has a TGI greater than 100 µM. In the case of `N#Cc1sc2nc(/C=C3/C=CC=CC3=O)c(O)n2c1N`, the TGI is reported as greater than 100 µM. With `NS(=O)(=O)c1ccc(-n2c(-c3cccs3)nc3ccc(I)cc3c2=O)cc1` the TGI was 56 µM. Work on `Cc1cccc2c1Oc1cc(Cl)ccc1C2NC(=O)CCN1CCOCC1` (stereo not drawn) yielded a TGI greater than 100 µM.

What follows are compounds tested on SK-OV-3 ovarian (assay: growth of human tumour cells (NCI), 48 h).
Compound `N#Cc1c(-c2ccccc2)[nH]c2ccccc2c1=O` has a TGI greater than 100 µM. `O/N=C\c1c(O)ccc2ccccc12` was tested, and the TGI was greater than 100 µM. Compound `CCOC(=O)c1csc(NC(=O)C(C)N2CCCCC2)n1` (stereo not drawn) has a TGI greater than 100 µM. Compound `CC1=NC(=Cc2ccc(O)cc2)C(=O)N1n1c(-c2ccccc2)nc2ccccc2c1=O` has a TGI greater than 100 µM. `COc1ccc2c(c1)CN1C(=N2)CSC1c1cc([N+](=O)[O-])ccc1Cl` (stereo not drawn) showed a TGI greater than 100 µM. For `N#Cc1sc2nc(/C=C3/C=CC=CC3=O)c(O)n2c1N`, the TGI was greater than 100 µM. For `NS(=O)(=O)c1ccc(-n2c(-c3cccs3)nc3ccc(I)cc3c2=O)cc1`, the TGI was 53.7 µM. `Cc1cccc2c1Oc1cc(Cl)ccc1C2NC(=O)CCN1CCOCC1` (stereo not drawn) was tested, and the TGI was greater than 100 µM.

Each compound was assayed on NCI-H226 lung (assay: growth of human tumour cells (NCI), 48 h).
In the case of `N#Cc1c(-c2ccccc2)[nH]c2ccccc2c1=O`, the TGI is reported as greater than 100 µM. For `O/N=C\c1c(O)ccc2ccccc12`, the TGI was greater than 100 µM. `CC1=NC(=Cc2ccc(O)cc2)C(=O)N1n1c(-c2ccccc2)nc2ccccc2c1=O` showed a TGI greater than 100 µM. `COc1ccc2c(c1)CN1C(=N2)CSC1c1cc([N+](=O)[O-])ccc1Cl` (stereo not drawn) gave a TGI greater than 100 µM.
